One may read the ED50 as the dose that gives a 50% effect, or the effect in half of the subjects. A word on the Ki: it is the equilibrium dissociation constant of an inhibitor or competing ligand from its target.

Drawing on patent publication US4753951A, “Condensed imidazopyridine derivatives useful as psychotropic agents” (Shionogi & Co., Ltd., priority 1985, dated 1988), this text covers ED50 and Ki for 23 compounds.

Where two headings read alike, the source gives them in different places. Where only a bound is given, the exact number is not on record here.

The subject of test [1] is Pentylenetetrazole-Induced Convulsion. Briefly: Potentiation of Pentylenetetrazole-Induced Convulsion (inverse agonist activity). The format is in vivo. The settings on record: Mus musculus; intravenous; mice; pentylenetetrazole 90 mg/kg s.c. (subconvulsive); 2-h observation; probit; read-out: ED50 (production of tonic convulsion and death). The method, then: Potentiation of Pentylenetetrazole-Induced Convulsion
Inverse agonist activity was evaluated in this test. Groups of 8-16 mice were challenged with a dose of 90 mg/kg. s.c. of pentylenetetrazole (a subconvulsive dose) immidiately after intravenous injection of the test compound. The dose required to produce tonic convulsion and death in 50% of the animals during a 2-h observation period was calculated by the probit method.

A further test has as its target benzodiazepine receptor. Briefly: Binding Test to Benzodiazepine Receptor (inhibition of tritium labeled diazepam binding). More on the design: species or system Wistar rats. The settings on record: 2nM tritium labeled diazepam; rat cerebral cortex; 0° C., 6 minutes; calculated from IC50. The method, then:
Binding Test to Benzodiazepine Receptor
This test was carried out in the modified mehtod of Mohler et al. Science, 198, 849-851 (1977).
Receptor preparation was provided from the cerebral cortex of Wistar rats (male, 11 to 13 weeks age). Inhibitory action of the test compound on the specific binding of tritium labeled diazepam to the receptor was evaluated as follows. 2nM tritium labeled diazepam and an aqueous solution of the test compound at 5 or 6 concentrations were incubated with the receptor preparation at 0° C. for 6 minutes. The 50% inhibitory concentration (IC50) was measured by the concentration-response curve.
The inhibitory constant (Ki) was calculated according to the following equation, in which Kd is the dissociation constant of the tritium labeled diazepam and L is the concentration of the labeled ligand.

A further test concerns conflict behavior. Briefly: Anticonflict Test. The format is in vivo. The settings on record: Rattus norvegicus; oral; male Wistar rats; 1 hour observation starting 30 minutes after administration; probit; read-out: Anti-conflict activity ED50. Here is the method:
The modified method of Geller and Seifter (Psychopharmacol, 1, 482, 1960) was employed. Groups of 5 or more male Wistar rats with well-established conflict behavior were used. A dose was determined as positive when the numbuer of electric shocks (punishment) exceeded more than 12 during a 1 hour observation period starting 30 minutes after oral administration of the test compound. The ED50 was calculated by the probit method.

Test [2] concerns mice gripping the wire with hindpaws. Put plainly: Traction Test. Type of test: in vivo. The note with it: Mus musculus, 0.5 h, read-out: Traction Test ED50. The method, then:
The modified method of Courvoisier et al. (in "Psychotropic Drugs", ed. by S. Garattini & R. Ducrot. p 373. Elsevier Publishing Co., Amsterdam, 1957) was employed. Groups of 10 mice were made to hang onto a horizontal metal wire (diameter: 1 mm) by grasping and holding with their forepaws 30 minutes after oral administration of the test compound, and the number of mice gripping the wire with hindpaws within 10 sec was counted. The ED50 was calculated by the probit method.

In test [3] the test system is Pentyleneterazole-Induced Convulsion. Briefly: Antagonism of Pentyleneterazole-Induced Convulsion (agonistic activity). The format is in vivo, male mice. The settings on record: Mus musculus; intravenous; mice; pentylenetetrazole 125 mg/kg, s.c.; 2-h observation; probit; read-out: ED50 (prevention of tonic convulsion and death). The method, then:
Antagonism of Pentyleneterazole-Induced Convulsion
Agonistic activity was evaluated in this test. Groups of 8-16 male mice were challenged with a dose of 125 mg/kg, s.c. of pentylenetetrazole immediately after intravenous injection of the test compound. The dose required to prevent tonic convulsion and death in 50% of the animal during a 2-h observation period was calculated by the probit method.

[4] abbreviates: oral, mice, 30 minutes after administration, gripping within 10 sec, probit.

With `Clc1ccc2c(c1)ncc1nc(-c3cccs3)[nH]c12` [Compound C35], the 50% effective dose (ED50) in test [1] turned out to be 1.76 mg/kg. For the same compound, the Ki on benzodiazepine receptor was 19.5 nM.

With `Cc1cc2c(ncc3nc(-c4cccs4)[nH]c32)s1` [Compound F2, 2-(Thien-2-yl)-7-methyl-1H-imidazo[4,5-d]thieno[2,3-b]pyridine], the ED50 in test [1] amounted to 0.13 mg/kg. Moreover, the Ki on benzodiazepine receptor was 31.8 nM.

Turning to `CN1C(=O)CN=C(c2ccccc2)c2cc(Cl)ccc21` [Diazepam, reference compound], the ED50 in the test on conflict behavior was found to be 1.05 mg/kg; in test [2] (po), 5.06 mg/kg.

As to `Fc1ccccc1-c1nc2cnc3ccccc3c2[nH]1` [Compound C21], in test [3], the ED50 came out at 2.05 mg/kg. In addition, on benzodiazepine receptor, the Ki is 1.8 nM.

Regarding `Cc1csc(-c2nc3cnc4cc(Cl)ccc4c3[nH]2)c1` [Compound C38], the 50% effective dose (ED50) in test [3] worked out at 8.52 mg/kg. The inhibition constant (Ki) on benzodiazepine receptor was 15.6 nM.

In the case of `c1ccc2c(c1)ncc1nc(-c3ccon3)[nH]c12` [Compound C58], the 50% effective dose (ED50) in test [1] came out at 1.65 mg/kg. At benzodiazepine receptor, the inhibition constant Ki was 0.525 nM.

For the compound `c1csc(-c2nc3cnc4ccsc4c3[nH]2)c1` [Compound K5], in test [1], the ED50 is 0.54 mg/kg. In addition, the Ki at benzodiazepine receptor was 10.1 nM.

`Fc1ccc(-c2nc3cnc4ccccc4c3[nH]2)cc1` [Compound C3, 2-(4-fluorophenyl)-1H-imidazo[4,5-c]quinoline]: the ED50 in test [3] is 2.31 mg/kg. Moreover, the Ki on benzodiazepine receptor is 15.8 nM.

On to `Cc1cc(-c2nc3cnc4ccccc4c3[nH]2)on1` [Compound C45, 2-(3-methylisoxazol-5-yl)-1H-imidazo[4,5-c]quinoline], for which the ED50 with conflict behavior is 2.68 mg/kg; in test [2] (setting [4]) it was over 200 mg/kg; in test [3], 0.71 mg/kg. The Ki on benzodiazepine receptor is 0.582 nM.

Regarding `Cc1cc(-c2nc3cnc4ccccc4c3[nH]2)ns1` [Compound C67], at benzodiazepine receptor, the inhibition constant (Ki) was 2.07 nM.

For `Cc1cc(-c2nc3cnc4ccc(F)cc4c3[nH]2)on1` [Compound C49], the ED50 in the test with conflict behavior is 1.19 mg/kg; in test [2] (setting [4]), over 200 mg/kg; in test [3], 0.32 mg/kg. The inhibitory constant (Ki) at benzodiazepine receptor is 0.237 nM.

As for `c1ccc2c(c1)ncc1nc(-c3cnns3)[nH]c12` [Compound C70], on benzodiazepine receptor, the Ki is 5.4 nM.

Consider `Cc1cc(-c2nc3cnc4ccccc4c3[nH]2)sn1` [Compound C68], for which, on benzodiazepine receptor, the Ki was 1.19 nM.

`Cc1csc(-c2nc3cnc4ccccc4c3[nH]2)n1` [Compound C71]: the ED50 in test [1] came out at 4.18 mg/kg. Also, the Ki at benzodiazepine receptor is 4.57 nM.

Take `CCc1cc(-c2nc3cnc4ccccc4c3[nH]2)on1` [Compound C46]: the ED50 in test [3] came to 1.2 mg/kg. The inhibition constant Ki on benzodiazepine receptor is 0.97 nM.

On to `Clc1ccc(-c2nc3cnc4ccccc4c3[nH]2)s1` [Compound C2], for which the ED50 in test [3] worked out at 16 mg/kg. At benzodiazepine receptor, the Ki is 0.97 nM.

For `Fc1ccc2c(c1)ncc1nc(-c3ccon3)[nH]c12` [Compound C60], at benzodiazepine receptor, the Ki was 0.495 nM.

Turning to `COc1ccc(-c2nc3cnc4ccccc4c3[nH]2)cc1` [Compound C13], the 50% effective dose (ED50) in test [3] was determined as 4.61 mg/kg. The Ki at benzodiazepine receptor was 8.73 nM.

Turning to `Fc1cccc(-c2nc3cnc4ccccc4c3[nH]2)c1` [Compound C20], in test [3], the ED50 came to 3.9 mg/kg. In addition, the Ki on benzodiazepine receptor was 27.7 nM.

For the compound `Clc1ccc2c(c1)ncc1nc(-c3ccon3)[nH]c12` [Compound C59], the median effective dose (ED50) in test [3] worked out at 3.01 mg/kg. The Ki on benzodiazepine receptor is 1.23 nM.

`Cc1cc(-c2nc3cnc4cc(F)ccc4c3[nH]2)on1` [Compound C48]: the values for the ED50 (in the test with conflict behavior; in test [2] (setting [4]); in test [3]) were 1.8 mg/kg, over 200 mg/kg and 0.59 mg/kg, respectively. Also, the Ki at benzodiazepine receptor was 0.907 nM.

As to `Cc1cc(-c2nc3cnc4ccccc4c3[nH]2)no1` [Compound C61], the 50% effective dose (ED50) in test [3] was found to be 0.74 mg/kg. For the same compound, the Ki at benzodiazepine receptor was 0.661 nM.

On to `c1csc(-c2nc3cnc4sccc4c3[nH]2)c1` [Compound F7], for which the ED50 in test [1] was determined as 0.5 mg/kg. Further, the inhibitory constant (Ki) at benzodiazepine receptor is 725 nM.
